According to ChEMBL document CHEMBL5247669, “Synthesis, modeling, and biological evaluation of anti-tubulin indole-substituted furanones” (Bioorg Med Chem Lett, 2023):
Values belong to the compound of their own block, whether it stands above or below them. The source made the active and inactive calls. The calls are words filed in the database; no cut-off is given here.

Experiments:
[1] = tested on: U-937; assay: Anticancer activity against human U-937 cells assessed as reduction in cell viability by MTT assay; assay type: functional, cell-based
[2] = biological target: Tubulin (Homo sapiens) (UniProt P68371+Q9H4B7+P0DPH7+P68366+Q13509+Q71U36+P04350+Q3ZCM7+P07437+P68363+Q9BQE3+Q6PEY2+Q13885+Q9BVA1+Q9BUF5); assay: Inhibition of tubulin polymerization (unknown origin) at 10 uM; assay type: protein-complex assay
[3] = tested on: HCT-116; assay: Growth inhibition of human HCT-116 cells by MTT assay; assay type: functional
[4] = tested on: M14; assay: Growth inhibition of human M14 cells by MTT assay; assay type: functional
[5] = tested on: HCC 2998; assay: Growth inhibition of human HCC 2998 cells by MTT assay; assay type: functional
[6] = tested on: TK-10; assay: Growth inhibition of human TK-10 cells by MTT assay; assay type: functional
[7] = tested on: SF-268; assay: Growth inhibition of human SF-268 cells by MTT assay; assay type: functional
[8] = tested on: OVCAR-3; assay: Growth inhibition of human OVCAR-3 cells by MTT assay; assay type: functional
[9] = tested on: SF-295; assay: Growth inhibition of human SF-295 cells by MTT assay; assay type: functional
[10] = tested on: SF-539; assay: Growth inhibition of human SF-539 cells by MTT assay; assay type: functional
[11] = tested on: NCI-H226; assay: Growth inhibition of human NCI-H226 cells by MTT assay; assay type: functional
[12] = tested on: HT-29; assay: Growth inhibition of human HT-29 cells by MTT assay; assay type: functional
[13] = tested on: SNB-19; assay: Growth inhibition of human SNB-19 cells by MTT assay; assay type: functional
[14] = tested on: CCRF-CEM; assay: Growth inhibition of human CCRF-CEM cells by MTT assay; assay type: functional
[15] = tested on: CAKI-1; assay: Growth inhibition of human CAKI-1 cells by MTT assay; assay type: functional
[16] = tested on: BT-549; assay: Growth inhibition of human BT-549 cells by MTT assay; assay type: functional
[17] = tested on: Malme-3M; assay: Growth inhibition of human Malme-3M cells by MTT assay; assay type: functional
[18] = tested on: NCI-H460; assay: Growth inhibition of human NCI-H460 cells by MTT assay; assay type: functional
[19] = tested on: NCI-H522; assay: Growth inhibition of human NCI-H522 cells by MTT assay; assay type: functional
[20] = tested on: SNB-75; assay: Growth inhibition of human SNB-75 cells by MTT assay; assay type: functional
[21] = tested on: SR; assay: Growth inhibition of human SR cells by MTT assay; assay type: functional
[22] = tested on: HL-60; assay: Growth inhibition of human HL-60 cells by MTT assay; assay type: functional
[23] = tested on: UACC-62; assay: Growth inhibition of human UACC-62 cells by MTT assay; assay type: functional
[24] = tested on: NCI-H322M; assay: Growth inhibition of human NCI-H322M cells by MTT assay; assay type: functional
[25] = tested on: MDA-MB-435; assay: Growth inhibition of human MDA-MB-435 cells by MTT assay; assay type: functional
[26] = tested on: A549; assay: Growth inhibition of human A549 cells by MTT assay; assay type: functional
[27] = tested on: PC-3; assay: Growth inhibition of human PC-3 cells by MTT assay; assay type: functional
[28] = tested on: HCT-15; assay: Growth inhibition of human HCT-15 cells by MTT assay; assay type: functional
[29] = tested on: UO-31; assay: Growth inhibition of human UO-31 cells by MTT assay; assay type: functional
[30] = tested on: NCI/ADR-RES; assay: Growth inhibition of human NCI/ADR-RES cells by MTT assay; assay type: functional
[31] = tested on: A498; assay: Growth inhibition of human A498 cells by MTT assay; assay type: functional
[32] = tested on: T47D; assay: Growth inhibition of human T47D cells by MTT assay; assay type: functional
[33] = tested on: MOLT-4; assay: Growth inhibition of human MOLT-4 cells by MTT assay; assay type: functional
[34] = tested on: U-251; assay: Growth inhibition of human U-251 cells by MTT assay; assay type: functional
[35] = tested on: RXF 393; assay: Growth inhibition of human RXF 393 cells by MTT assay; assay type: functional
[36] = tested on: UACC-257; assay: Growth inhibition of human UACC-257 cells by MTT assay; assay type: functional
[37] = tested on: RPMI-8226; assay: Growth inhibition of human RPMI-8226 cells by MTT assay; assay type: functional
[38] = tested on: K562; assay: Growth inhibition of human K562 cells by MTT assay; assay type: functional
[39] = tested on: KM12; assay: Growth inhibition of human KM12 cells by MTT assay; assay type: functional
[40] = tested on: MCF7; assay: Growth inhibition of human MCF7 cells by MTT assay; assay type: functional
[41] = tested on: IGROV-1; assay: Growth inhibition of human IGROV-1 cells by MTT assay; assay type: functional, cell-based
[42] = tested on: SK-OV-3; assay: Growth inhibition of human SK-OV-3 cells by MTT assay; assay type: functional
[43] = tested on: DU-145; assay: Growth inhibition of human DU-145 cells by MTT assay; assay type: functional
[44] = tested on: OVCAR-8; assay: Growth inhibition of human OVCAR-8 cells by MTT assay; assay type: functional
[45] = tested on: EKVX; assay: Growth inhibition of human EKVX cells by MTT assay; assay type: functional
[46] = tested on: SK-MEL-5; assay: Growth inhibition of human SK-MEL-5 cells by MTT assay; assay type: functional
[47] = tested on: COLO 205; assay: Growth inhibition of human COLO 205 cells by MTT assay; assay type: functional
[48] = tested on: NCI-H23; assay: Growth inhibition of human NCI-H23 cells by MTT assay; assay type: functional
[49] = tested on: Hs-578T; assay: Growth inhibition of human Hs-578T cells by MTT assay; assay type: functional
[50] = tested on: LOX IMVI; assay: Growth inhibition of human LOX IMVI cells by MTT assay; assay type: functional
[51] = tested on: SN12C; assay: Growth inhibition of human SN12C cells by MTT assay; assay type: functional
[52] = tested on: MDA-MB-468; assay: Growth inhibition of human MDA-MB-468 cells by MTT assay; assay type: functional
[53] = tested on: HOP-62; assay: Growth inhibition of human HOP-62 cells by MTT assay; assay type: functional
[54] = tested on: SW-620; assay: Growth inhibition of human SW-620 cells by MTT assay; assay type: functional
[55] = tested on: 786-0; assay: Growth inhibition of human 786-0 cells by MTT assay; assay type: functional
[56] = tested on: MDA-MB-231; assay: Growth inhibition of human MDA-MB-231 cells by MTT assay; assay type: functional
[57] = tested on: SK-MEL-28; assay: Growth inhibition of human SK-MEL-28 cells by MTT assay; assay type: functional
[58] = tested on: HOP-92; assay: Growth inhibition of human HOP-92 cells by MTT assay; assay type: functional
[59] = tested on: ACHN; assay: Growth inhibition of human ACHN cells by MTT assay; assay type: functional
[60] = tested on: SK-MEL-2; assay: Growth inhibition of human SK-MEL-2 cells by MTT assay; assay type: functional
[61] = tested on: OVCAR-5; assay: Growth inhibition of human OVCAR-5 cells by MTT assay; assay type: functional
[62] = tested on: OVCAR-4; assay: Growth inhibition of human OVCAR-4 cells by MTT assay; assay type: functional

SMILES: COc1ccc(OC)c(C2=C(c3cn(C)c4ccccc34)COC2=O)c1
- EC50 [1]: 3.2 µM

SMILES: Cn1cc(C2=C(c3ccccc3)C(=O)OC2)c2ccccc21
- EC50 [1]: > 10 µM

SMILES: COc1cc(C2=C(c3cn(C)c4ccccc34)COC2=O)cc(OC)c1OC
- inhibition [2]: Active
- GI50 [3]: 0.04 µM
- GI50 [4]: 0.037 µM
- GI50 [5]: 0.219 µM
- GI50 [6]: 0.933 µM
- GI50 [7]: 0.813 µM
- GI50 [8]: 0.036 µM
- GI50 [9]: 0.04 µM
- GI50 [10]: 0.105 µM
- GI50 [11]: 0.692 µM
- GI50 [12]: 0.038 µM
- GI50 [13]: 0.158 µM
- GI50 [14]: 0.059 µM
- GI50 [15]: 0.052 µM
- GI50 [16]: 0.062 µM
- GI50 [17]: 0.195 µM
- GI50 [18]: 0.054 µM
- GI50 [19]: 0.049 µM
- GI50 [20]: 0.044 µM
- GI50 [21]: 0.022 µM
- GI50 [22]: 0.043 µM
- GI50 [23]: 0.054 µM
- GI50 [24]: 0.407 µM
- GI50 [25]: 0.025 µM
- GI50 [26]: 0.1 µM
- GI50 [27]: 0.102 µM
- EC50 [1]: 0.6 µM
- GI50 [28]: 0.043 µM
- GI50 [29]: 0.186 µM
- GI50 [30]: 0.047 µM
- GI50 [31]: 0.017 µM
- GI50 [32]: 0.06 µM
- GI50 [33]: 0.055 µM
- GI50 [34]: 0.072 µM
- GI50 [35]: 0.132 µM
- GI50 [36]: 1.62 µM
- GI50 [37]: 0.11 µM
- GI50 [38]: 0.037 µM
- GI50 [39]: 0.065 µM
- GI50 [40]: 0.028 µM
- IC50 [41]: 0.076 µM
- GI50 [42]: 0.269 µM
- GI50 [43]: 0.209 µM
- GI50 [44]: 0.339 µM
- GI50 [45]: 0.151 µM
- GI50 [46]: 0.078 µM
- GI50 [47]: 0.065 µM
- GI50 [48]: 0.234 µM
- GI50 [49]: 0.158 µM
- GI50 [50]: 0.066 µM
- GI50 [51]: 0.282 µM
- GI50 [52]: 0.032 µM
- GI50 [53]: 0.123 µM
- GI50 [54]: 0.045 µM
- GI50 [55]: 0.316 µM
- GI50 [56]: 0.339 µM
- GI50 [57]: 0.427 µM
- GI50 [58]: 0.251 µM
- GI50 [59]: 0.537 µM
- GI50 [60]: 0.229 µM
- GI50 [61]: 0.479 µM
- GI50 [62]: 1.26 µM

SMILES: COc1ccccc1C1=C(c2cn(C)c3ccccc23)COC1=O
- EC50 [1]: > 10 µM

SMILES: COc1ccc(C2=C(c3cn(C)c4ccccc34)COC2=O)cc1OC
- EC50 [1]: > 10 µM

SMILES: Cc1ccc(C2=C(c3cn(C)c4ccccc34)COC2=O)cc1
- EC50 [1]: > 10 µM

The remaining lines, values ahead:

- EC50 [1]: > 10 µM
SMILES: COc1ccc(C2=C(c3cn(C)c4ccccc34)COC2=O)cc1

- EC50 [1]: > 10 µM
SMILES: Cc1cccc(C2=C(c3cn(C)c4ccccc34)COC2=O)c1

- EC50 [1]: > 10 µM
SMILES: COc1cccc(C2=C(c3cn(C)c4ccccc34)COC2=O)c1
